Measurements reported in ChEMBL document CHEMBL4130372, “The antitrypanosomal and antitubercular activity of some nitro(triazole/imidazole)-based aromatic amines” (Eur J Med Chem, 2017).
Converted amounts (≈) assume the structure as drawn. The source made the active and inactive calls. The calls are words filed in the database; no cut-off is given here.

What was measured:
Trypanosoma cruzi [1] = experiment: Antitrypanosomal activity against Trypanosoma cruzi Tulahuen C4 amastigotes infected in rat L6 cells after 96 hrs by CPRG/nonidet-based inverted microscopic analysis; assay type: functional, organism-based; settings: Tulahuen C4, L6, 96 h
[2] = system: Trypanosoma brucei rhodesiense; experiment: Antitrypanosomal activity against blood stream form of Trypanosoma brucei rhodesiense STIB900 trypomastigotes after 72 hrs by Alamar Blue assay; assay type: functional, organism-based; settings: STIB900, 72 h
Trypanosoma cruzi [3] = experiment: Potency index, ratio of benznidazole IC50 to compound IC50 for Trypanosoma cruzi Tulahuen C4; assay type: functional
L6 = experiment: Cytotoxicity against rat L6 cells assessed as reduction in cell viability after 2 days by cell-titer-glo luminescent assay; assay type: cell-based; settings: L6, 48 h
[4] = system: Mycobacterium tuberculosis; experiment: Antitubercular activity against Mycobacterium tuberculosis H37Rv ATCC 27294 after 5 days measured under aerobic conditions by fluorescence-based assay; assay type: functional, organism-based; settings: H37Rv ATCC 27294, 120 h
[5] = Cytotoxicity against African green monkey Vero cells assessed as reduction in cell viability after 2 days by cell-titer-glo luminescent assay; assay type: cell-based; settings: chlorocebus sabaeus, read-out: TC50
[6] = Selectivity index, ratio of IC50 for rat L6 cells to IC50 for blood stream form of Trypanosoma brucei rhodesiense STIB900; assay type: toxicity; settings: read-out: Ratio IC50
[7] = system: Mycobacterium tuberculosis; experiment: Antitubercular activity against Mycobacterium tuberculosis INH-R2 ATCC 35822 after 5 days by fluorescence-based assay; assay type: functional; settings: INH-R2 ATCC 35822, 120 h
[8] = system: Mycobacterium tuberculosis; experiment: Bactericidal activity against Mycobacterium tuberculosis H37Rv ATCC 27294 assessed as minimum concentration required to achieve a 2-log kill measured after 21 days; assay type: functional
[9] = Selectivity index, ratio of TC50 for African green monkey Vero cells to MIC for Mycobacterium tuberculosis H37Rv ATCC 27294 expressing luxABCDE operon; assay type: toxicity; settings: read-out: Selectivity Index
[10] = system: Mycobacterium tuberculosis; experiment: Antitubercular activity against Mycobacterium tuberculosis H37Rv ATCC 27294 expressing luxABCDE operon incubated for 10 days under hypoxic conditions followed by incubation under aerobic conditions for 28 hrs by LORA method; assay type: functional, organism-based
[11] = Selectivity index, ratio of IC50 for rat L6 cells to IC50 for […] amastigotes infected in rat L6 cells; assay type: toxicity, cell-based; settings: read-out: Ratio IC50
[12] = system: Mycobacterium tuberculosis; experiment: Antitubercular activity against Mycobacterium tuberculosis RIF-R2 ATCC 35828 after 5 days by fluorescence-based assay; assay type: functional; settings: RIF-R2 ATCC 35828, 120 h
[13] = system: Mycobacterium tuberculosis; experiment: Antitubercular activity against Mycobacterium tuberculosis H37Rv ATCC 27294 expressing […] infected in mouse J774 cells assessed as log reduction in intracellular bacterial burden at 20 uM after 4 days by luminescence assay; assay type: functional
[14] = system: Mycobacterium tuberculosis; experiment: Antitubercular activity against Mycobacterium tuberculosis H37Rv ATCC 27294 expressing luxABCDE operon at 100 uM incubated for 10 days under hypoxic conditions followed by incubation under aerobic conditions for 28 hrs by LORA method; assay type: functional
[15] = system: Mycobacterium tuberculosis; experiment: Bactericidal activity against Mycobacterium tuberculosis H37Rv ATCC 27294 assessed as minimum concentration required to achieve a 2-log kill measured after 21 days under hypoxic conditions; assay type: functional; settings: H37Rv ATCC 27294, 504 h
[16] = system: Mycobacterium tuberculosis; experiment: Antitubercular activity against Mycobacterium tuberculosis H37Rv ATCC 27294 expressing […] infected in mouse J774 cells assessed as log reduction in intracellular bacterial burden at 30 uM after 4 days by luminescence assay; assay type: functional
[17] = system: Mycobacterium tuberculosis; experiment: Antitubercular activity against Mycobacterium tuberculosis H37Rv ATCC 27294 expressing […] infected in mouse J774 cells assessed as log reduction in intracellular bacterial burden at 0.6 uM after 4 days by luminescence assay; assay type: functional
[18] = system: Mycobacterium tuberculosis; experiment: Antitubercular activity against Mycobacterium tuberculosis H37Rv ATCC 27294 expressing […] infected in mouse J774 cells assessed as log reduction in intracellular bacterial burden at 200 uM after 4 days by luminescence assay; assay type: functional

| Structure (SMILES) | IC50 (Trypanosoma cruzi [1]) [µM] | IC50 [2] [µM] | Ratio IC50 (Trypanosoma cruzi [3]) | IC50 (L6) [µM] | IC50 [4] [µM] | IC90 [4] [µM] | MIC [4] [µM] | selectivity ratio [6] | MIC [10] [µM] | selectivity ratio [11] | other results |
| --- | --- | --- | --- | --- | --- | --- | --- | --- | --- | --- | --- |
| O=C(Cn1ccnc1[N+](=O)[O-])NCc1ccccc1 [BENZNIDAZOLE] | 2.24 | – | – | – | – | – | – | – | – | – | – |
| Cl.O=[N+]([O-])c1ncn(CCCNc2ccnc3cc(Cl)ccc23)n1 | – | 0.309 | 2.2 | – | – | – | – | – | – | – | – |
| O=[N+]([O-])c1nccn1CCCCNc1ccnc2c(Cl)cccc12 | 2.04 | 1.27 | 1.1 | 36.2 | 41 | > 200 | > 200 | 29 | 4.14 (≈ 1.43 µg/mL) | 18 | CC50 at 48 h [5]: 66 µM; MIC [7]: > 200 µM; MBC [8]: inactive; selectivity ratio [9]: 16; IC50 [10]: 0.15 µM; IC90 [10]: 0.84 µM; MIC [12]: > 200 µM; log(activity) [13]: 1.5 |
| O=[N+]([O-])c1ncn(CCCCNc2ccnc3c(Cl)cccc23)n1 | 0.574 | 0.038 | 3.9 | 73.6 | > 200 | > 200 | > 200 | 1940 | > 100 | 128 | Activity [14]: 82% |
| O=[N+]([O-])c1cn2c(n1)OC[C@@H](OCc1ccc(OC(F)(F)F)cc1)C2 [PRETOMANID] | – | – | – | – | – | – | – | – | – | – | MBC [15]: 17.8 to 35.7 µM (≈ 6.39 to 12.8 µg/mL) |
| Cl.O=[N+]([O-])c1ncn(CCCCNc2ccnc3cc(Cl)ccc23)n1 | – | 0.193 | 9.6 | – | – | – | – | 710 | – | 979 | – |
| Cl.O=[N+]([O-])c1nccn1CCCNc1ccnc2cc(Cl)ccc12 | – | 1.4 | 2.15 | – | – | – | > 128 | 18 | – | 24 | CC50 at 48 h [5]: 399 µM; MBC [15]: 8.4 to 50 µM |
| CO[C@H]1/C=C/O[C@@]2(C)Oc3c(C)c(O)c4c(O)c(c(/C=N/N5CCN(C)CC5)c(O)c4c3C2=O)NC(=O)/C(C)=C\C=C\[C@H](C)[C@H](O)[C@@H](C)[C@@H](O)[C@@H](C)[C@H](OC(C)=O)[C@@H]1C [RIFAMPIN] | – | – | – | – | 0.0046 | 0.0049 | 0.015 (≈ 0.0123 µg/mL) | – | 0.022 (≈ 0.0181 µg/mL) | – | MIC [7]: 0.011 µM (≈ 0.00905 µg/mL); IC50 [10]: 0.00072 µM; IC90 [10]: 0.0037 µM; MIC [12]: > 50 µM |
| Cl.O=[N+]([O-])c1nccn1CCCCNc1ccnc2cc(Cl)ccc12 | – | 1.87 | 0.64 | – | – | – | > 128 | 36 | – | 19 | CC50 at 48 h [5]: > 1680 µM; MBC [15]: 12.8 to 25.7 µM |
| C[C@H]1COc2c(N3CCN(C)CC3)c(F)cc3c(=O)c(C(=O)O)cn1c23.C[C@H]1COc2c(N3CCN(C)CC3)c(F)cc3c(=O)c(C(=O)O)cn1c23.O [LEVOFLOXACIN] | – | – | – | – | – | – | – | – | – | – | MIC [7]: 1.3 µM; MIC [12]: 1.4 µM |
| Clc1cccc2c(NCCCCn3cncn3)ccnc12 | 48.6 | 13.5 | 0.05 | 37.7 | – | – | – | 2.8 | – | 0.8 | – |
| O=[N+]([O-])c1nccn1CCCNc1ncnc2ccccc12 | 1.83 | 13.2 | 1.11 | 38.6 | – | – | – | 2.9 | – | 21 | – |
| O=[N+]([O-])c1nccn1CCCCNc1ncnc2ccccc12 | 2.32 | 2.58 | 0.96 | 8.96 | > 200 | > 200 | > 200 | 3.5 | 9.18 (≈ 2.87 µg/mL) | 3.9 | – |
| NNC(=O)c1ccncc1 [ISONIAZID] | – | – | – | – | – | – | – | – | – | – | log(activity) [16]: 2.6; log(activity) [17]: 2.7; MIC [7]: > 200 µM; MIC [12]: 0.67 µM (≈ 0.0919 µg/mL) |
| Cc1ncc([N+](=O)[O-])n1CCO [METRONIDAZOLE] | – | – | – | – | > 200 | > 200 | > 200 | – | 200 (≈ 34.2 µg/mL) | – | IC50 [10]: 36 µM; IC90 [10]: 82 µM |
| O=[N+]([O-])c1ncn(CCCCNc2ncnc3ccccc23)n1 | 0.872 | 0.39 | 2.57 | 34.4 | 51 | 140 | 200 (≈ 62.7 µg/mL) | 88 | > 100 | 39 | CC50 at 48 h [5]: > 100 µM; MIC [7]: > 200 µM; MBC ([8]; H37Rv ATCC 27294, 504 h): 100 µM (≈ 31.3 µg/mL); Activity [14]: 76%; IC50 [10]: 11 µM; IC90 [10]: > 100 µM; MIC [12]: > 200 µM; log(activity) [18]: 0.7 |
| O=[N+]([O-])c1nccn1CCCNc1ccnc2c(Cl)cccc12 | 1.11 | 1.29 | 2.02 | 107 | > 200 | > 200 | > 200 | 83 | 2.89 (≈ 0.959 µg/mL) | 97 | – |
